In the NIST ThermoML archive (doi:10.1007/s10765-007-0223-x):

Assay: xn = mol fraction of the nth substance listed
Settings: 101 kPa, Liquid; for speed of sound: Single path-length method

COC(C)(C)C [2-methoxy-2-methylpropane] + c1ccccc1
Settings | mass density [kg/m3] | speed of sound [m/s]
305.65 K, x1 = 0.052 | 856.117 | –
305.65 K, x1 = 0.111 | 846.045 | –
305.65 K, x1 = 0.202 | 831.061 | –
305.65 K, x1 = 0.303 | 815.461 | –
305.65 K, x1 = 0.397 | 801.707 | –
305.65 K, x1 = 0.5 | 787.314 | –
305.65 K, x1 = 0.596 | 774.518 | –
305.65 K, x1 = 0.698 | 761.485 | –
305.65 K, x1 = 0.791 | 750.234 | 1047.1
305.65 K, x1 = 0.902 | 737.34 | 1021.7
305.65 K, x1 = 0.95 | 731.914 | 1010.9
305.65 K, x1 = 1 | 726.444 | 1002.4
308.15 K, x1 = 0.052 | 853.44 | 1234.9
308.15 K, x1 = 0.111 | 843.388 | 1216.5
308.15 K, x1 = 0.202 | 828.417 | 1188.9
308.15 K, x1 = 0.303 | 812.827 | 1160
308.15 K, x1 = 0.397 | 799.075 | 1134.1
308.15 K, x1 = 0.5 | 784.683 | 1106.9
308.15 K, x1 = 0.596 | 771.88 | 1082.4
308.15 K, x1 = 0.698 | 758.841 | 1057.2
308.15 K, x1 = 0.791 | 747.582 | 1035.7
308.15 K, x1 = 0.902 | 734.673 | 1010.3
308.15 K, x1 = 0.95 | 729.241 | 999.43
308.15 K, x1 = 1 | 723.763 | 990.99
310.65 K, x1 = 0.052 | 850.759 | 1223.5
310.65 K, x1 = 0.111 | 840.726 | 1205.2
310.65 K, x1 = 0.202 | 825.767 | 1177.5
310.65 K, x1 = 0.303 | 810.187 | 1148.8
310.65 K, x1 = 0.397 | 796.438 | 1122.8
310.65 K, x1 = 0.5 | 782.044 | 1095.5
310.65 K, x1 = 0.596 | 769.234 | 1071.2
310.65 K, x1 = 0.698 | 756.187 | 1046
310.65 K, x1 = 0.791 | 744.918 | 1024.3
310.65 K, x1 = 0.902 | 731.995 | 998.9
310.65 K, x1 = 0.95 | 726.556 | 988.05
310.65 K, x1 = 1 | 721.069 | 979.62
313.15 K, x1 = 0.052 | 848.07 | 1212
313.15 K, x1 = 0.111 | 838.056 | 1193.8
313.15 K, x1 = 0.202 | 823.111 | 1166.3
313.15 K, x1 = 0.303 | 807.533 | 1137.4
313.15 K, x1 = 0.397 | 793.792 | 1111.5
313.15 K, x1 = 0.5 | 779.391 | 1084.2
313.15 K, x1 = 0.596 | 766.575 | 1059.8
313.15 K, x1 = 0.698 | 753.517 | 1034.6
313.15 K, x1 = 0.791 | 742.24 | 1013
313.15 K, x1 = 0.902 | 729.301 | 987.61
313.15 K, x1 = 0.95 | 723.852 | 976.7
313.15 K, x1 = 1 | 718.357 | 968.16
315.65 K, x1 = 0.052 | 845.378 | 1200.6
315.65 K, x1 = 0.111 | 835.381 | 1182.5
315.65 K, x1 = 0.202 | 820.447 | 1155
315.65 K, x1 = 0.303 | 804.877 | 1126.2
315.65 K, x1 = 0.397 | 791.135 | 1100.3
315.65 K, x1 = 0.5 | 776.733 | 1073
315.65 K, x1 = 0.596 | 763.908 | 1048.6
315.65 K, x1 = 0.698 | 750.84 | 1023.3
315.65 K, x1 = 0.791 | 739.55 | 1001.7
315.65 K, x1 = 0.902 | 726.593 | 976.23
315.65 K, x1 = 0.95 | 721.138 | 965.31
315.65 K, x1 = 1 | 715.636 | 956.8
318.15 K, x1 = 0.052 | 842.684 | 1189.4
318.15 K, x1 = 0.111 | 832.703 | 1171.3
318.15 K, x1 = 0.202 | 817.778 | 1143.8
318.15 K, x1 = 0.303 | 802.213 | 1115
318.15 K, x1 = 0.397 | 788.472 | 1089.2
318.15 K, x1 = 0.5 | 774.062 | 1061.8
318.15 K, x1 = 0.596 | 761.226 | 1037.4
318.15 K, x1 = 0.698 | 748.147 | 1012.1
318.15 K, x1 = 0.791 | 736.847 | 990.48
318.15 K, x1 = 0.902 | 723.87 | 964.92
320.65 K, x1 = 0.052 | 840.006 | 1178.4
320.65 K, x1 = 0.111 | 830.019 | 1160.1
320.65 K, x1 = 0.202 | 815.102 | 1132.6
320.65 K, x1 = 0.303 | 799.541 | 1103.9
320.65 K, x1 = 0.397 | 785.8 | 1078.1
320.65 K, x1 = 0.5 | 771.341 | 1050.4
320.65 K, x1 = 0.596 | 758.536 | 1026.2
320.65 K, x1 = 0.698 | 745.444 | 1001
320.65 K, x1 = 0.791 | 734.13 | 979.25
320.65 K, x1 = 0.902 | 721.133 | 953.72
323.15 K, x1 = 0.052 | 837.364 | 1168
323.15 K, x1 = 0.111 | 827.342 | 1149.2
323.15 K, x1 = 0.202 | 812.432 | 1121.7
323.15 K, x1 = 0.303 | 796.876 | 1093
323.15 K, x1 = 0.397 | 783.138 | 1067.2
323.15 K, x1 = 0.5 | 768.725 | 1040
323.15 K, x1 = 0.596 | 755.841 | 1015.2
323.15 K, x1 = 0.698 | 742.756 | 990.11
323.15 K, x1 = 0.791 | 731.411 | 968.17
323.15 K, x1 = 0.902 | 718.4 | 942.69
323.15 K, x1 = 0.95 | 712.917 | 931.73
323.15 K, x1 = 1 | 707.381 | 922.97
